Key:
Assay in all cases: agar diffusion test (Test System II, multi-resistant germs)
Conditions in all cases: quantity 0.09 μmol
S. aureus ATCC 6538 = type: cell-based, Staphylococcus aureus
Summary of the method: (§1)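 Read-out is the diameter of the growth-free zone around each disc after plates incubate 18-20 hours at 37 °C. Discs hold 10, 50 or 100 μg of substance applied from methanol or aqueous solution, on agar seeded with bacteria adjusted to McFarland 0.5.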

S. aureus 38418 = type: cell-based, Staphylococcus aureus
Summary of the method: as §1

[1] = system: Staphylococcus aureus 315; type: cell-based; parameters: key: r = resistant (no detectable zone of inhibition)
Summary of the method: as §1

[2] = system: Enterococcus faecalis 769; type: cell-based; parameters: key: r = resistant (no detectable zone of inhibition)
Summary of the method: as §1

[3] = system: Staphylococcus haemolyticus 535; type: cell-based; parameters: key: r = resistant (no detectable zone of inhibition)
Summary of the method: as §1

S. epidermidis 847 = type: cell-based, Staphylococcus epidermidis
Summary of the method: as §1

S. aureus 33490 = type: cell-based, Staphylococcus aureus; parameters: key: r = resistant (no detectable zone of inhibition)
Summary of the method: as §1

S. aureus 520 = type: cell-based, Staphylococcus aureus; parameters: key: r = resistant (no detectable zone of inhibition)
Summary of the method: as §1

S. aureus 36881 = type: cell-based, Staphylococcus aureus; parameters: key: r = resistant (no detectable zone of inhibition)
Summary of the method: as §1

S. epidermidis 125 = type: cell-based, Staphylococcus epidermidis
Summary of the method: as §1

[4] = system: Staphylococcus aureus col.; type: cell-based
Procedure: The test substances are deposited in stepped quantities (10 μg, 50 μg, 100 μg) onto active ingredient carriers (sensi-discs). For this purpose, the test substances are dissolved in methanol or A. dest. according to their solubility. Each inoculated plate is fitted with 3 test sheets.
Test System II (Effect Against Multi-Resistant Germs)
For this purpose, bacteria is cultivated on Müller-Hinton-Agar II plates.
With 1-1.5 ml physiological saline solution, a bacteria suspension of McFarland 0.5 (corresponds to a bacteria density of 150×10^6 germs) is produced. Then, with a sterile glass rod, a small drop of bacteria suspension is placed on the Müller-Hinton-Agar plate and coated in three layers (vertical, horizontal, and transverse). Thereafter, the sensi-discs with the novel semi-synthetic test substances are placed on top. The fitted plates are incubated for 18-20 hours at 37° C. After incubation, the diameters of the zones of inhibition are read as a measure for the antimicrobial activity of the novel semi-synthetic test substances.

CC1(C)SC2C(NC(=O)C(NC3=C(C(=O)NCCO)C(=O)C=CC3=O)c3ccc(O)cc3)C(=O)N2C1C(=O)O (centres unmarked) [6-{2-[2-(2-hydroxyethylcarbamoyl)-3,6-dioxocyclohexa-1,4-dienylamino]-2-(4-hydroxyphenyl)-acetylamino-penicillanic acid] was tested, and the “Diameter of zone of inhibition” value (S. aureus ATCC 6538) was 44 mm, the “Diameter of zone of inhibition” value (S. aureus 38418) was 34 mm and the “Diameter of zone of inhibition” value [1] was “r”. For the same compound, the “Diameter of zone of inhibition” value [2] was 28 mm, the “Diameter of zone of inhibition” value [3] was “r” and the “Diameter of zone of inhibition” value (S. epidermidis 847) was 24 mm. For the same compound, the “Diameter of zone of inhibition” value (S. aureus 33490) was 18 mm, the “Diameter of zone of inhibition” value (S. aureus 520) was “r” and the “Diameter of zone of inhibition” value (S. aureus 36881) was “r^2”. The “Diameter of zone of inhibition” value (S. epidermidis 125) was 28 mm and the “Diameter of zone of inhibition” value [4] was 32 mm.

Source: patent publication US20110040086A1, “Novel Beta-Lactam Antibiotics, Methods for Their Production, and Their Use” (DRITTE PATENTPORTFOLIO BETEILIGUNGSGESELLSCHAFT MB, priority 2007, published 2011)
